The record followed here is patent US9346818B2 (priority 2012, dated 2016).

In general, IC50 refers to the concentration that inhibits the measured activity by half. The LD50 is the dose at which mortality reaches 50%. High values mean lower toxicity, low ones greater toxicity.

For one data set, the target named is acetylcholinesterase (Homo sapiens (Human), UniProt P22303). The experiment in a line: biochemical. It counts as biochemical. The settings on record: for potency on acetylcholinesterase compared with positive control drug donepezil hydrochloride: enzymology level; for IC50: read-out: IC50 (nM), inhibition activity on acetylcholinesterase.
For data set [1], the system named is learning and memory disorder of mice induced by scopolamine. The experiment in a line: Morris water maze test, senile dementia mice model induced by scopolamine. It counts as in vivo.
The test system of the next data set is malonaldehyde (MDA). Put plainly: Biochemical indicators of brain tissues (MDA assay) in scopolamine mice. Type of data set: in vivo. The conditions noted are these: 5 mg/kg. The method, then: After the behavior test was complete, the mice were sacrificed, brain tissues were collected (operated on an ice plate) and prepared into 10% of tissue homogenate with pre-cooled physiological saline, centrifuged (3000 rpm, 10 min), and the supernatant was subjected to malonaldehyde (MDA) assay following the kits.

How the values of data set [2] were obtained: 0.3 ml of whole blood was collected at corresponding time point, anticoagulating with heparin, centrifuged at 4000 rpm for 10 min, the plasma was separated, 50 μL the plasma sample of rats was collected, 100 μL acetonitrile (containing 0.1% formic acid) was added, mixed under vortex for 1 min, centrifuged (12000 rpm) for 10 min, the supernatant was collected, analyzed with liquid chromatography-mass spectrometer, the area of peaks were recorded and used for the calculation of blood drug concentration, and the drug-time curve was plotted.

Another data set in a line: in vivo. The conditions noted are these: mouse, in vivo. How it is done:
(§1) Firstly, preliminary tests were performed, in order to determine the concentration of each compound, with just 0% mortality or just 100% mortality, before starting the formal tests. The animals were divided into groups by weight, various dosages of drugs were administered between 0%-100%. Dosage volume: 10 ml/kg. Dosage manner: intravenous injection or intragastric administration.
(§2) The animals were divided into 6 groups, with 5 animals per group.
(§3) The animals were divided into 6 groups, with 5 animals per group. […] Each animal was fasted 12 h before administration.
(§4) The animals were divided into 5 groups, with 5 animals per group.
(§5) The animals were divided into 5 groups, with 5 animals per group. […] Each animal was fasted 12 h before administration.
(§6) The toxic reaction and death of the animals after administration were observed, and mortality was counted. The results were analyzed with LD50 data processing software.

For the next data set, the system named is white mice. Put plainly: in vivo. The settings on record: for Mortality (%) / Number of death: 5 animals; for toxicity compared with donepezil hydrochloride: preliminary acute toxicity tests. How it is done:
as §1, §2, §3, §4, §5, §6

For data set [3], the system named is learning and memory disorder induced by intracerebroventricular injection of Aβ1-42. Put plainly: Morris water maze test, rats with intracerebroventricular injection of Aβ1-42. Type of data set: in vivo. The conditions noted are these: for The period of reaching the platform for the first time (latent period) / times of crossing platform: 8 days. The method, then: The model of learning and memory disorder induced after intracerebroventricular injection of Aβ1-42 is the most common animal model for evaluating whether a compound has the effect of improving the learning and memory. […] Morris water maze test and the model of learning and memory disorder induced by intracerebroventricular injection of Aβ1-42 were employed in the present research, and the improvement effects of I-33 on learning and memory of rats at various concentration (0.7 mg/Kg, 3.5 mg/Kg, and 7 mg/Kg) were evaluated.
SD, male (220±20 g), the animals were fed in light: dark cycle (12 h/12 h) in a cleaning level of animal room, ad lib. The tests were performed after 3 days acclimation in the animal room. Aβ1-42 was formulated to 2 μg/μl according to the instruction of specification.
(1) Normal group: intracerebroventricular injection of physiological saline
(2) Model group with intracerebroventricular injection of Aβ1-42: intracerebroventricular injection of Aβ1-42
(4) I-33 (low concentration group): I-33 (0.7 mg/Kg)+intracerebroventricular injection of Aβ1-42
(5) I-33 (medium concentration group): I-33 (3.5 mg/Kg)+intracerebroventricular injection of Aβ1-42
(6) I-33 (high concentration group): I-33 (7 mg/Kg)+intracerebroventricular injection of Aβ1-42
Each rat in normal control group received intracerebroventricular injection of 5 μl of physiological saline, each rat in the other groups received intracerebroventricular injection of 5 μl of Aβ1-42. After the operation, the rats received the following tests after 1 week recovery period. […] The drugs were administered for 8 days, the training for water maze test was started on the 5th day, and the water maze test was formally started on the 9th day.

Where [4] appears, read: Table 4, 5 mg/kg intragastric, scopolamine 1 mg/kg.
[5] abbreviates: Intragastric administration 215.23 mg/kg.
Setting [6] is: Intragastric administration 239.15 mg/kg.
[7] abbreviates: Intragastric administration 265.72 mg/kg.
Where [8] appears, read: Intragastric administration 295.25 mg/kg.
Where [9] appears, read: Intragastric administration 450.00 mg/kg.
The mark [10] stands for this setting: Intragastric administration 500.00 mg/kg.
Setting [11] is: Intravenous injection 16.18 mg/kg.
[12] abbreviates: Intravenous injection 20.48 mg/kg.
Setting [13] is: Intravenous injection 25.60 mg/kg.
Where [14] appears, read: Intravenous injection 32.00 mg/kg.
Setting [15] is: Intravenous injection 40.00 mg/kg.
Where [16] appears, read: Intravenous injection 50.00 mg/kg.
Where [17] appears, read: Aβ1-42 rats, DPH 3 mg/Kg, I-33 all dosages tested.
[18] abbreviates: high concentration 7 mg/Kg intragastric, Aβ1-42 rats.
[19] abbreviates: low concentration 0.7 mg/Kg intragastric, Aβ1-42 rats.
[20] abbreviates: medium concentration 3.5 mg/Kg intragastric, Aβ1-42 rats.
The mark [21] stands for this setting: Intragastric administration 122.88 mg/kg.
Setting [22] is: Intragastric administration 153.60 mg/kg.
[23] abbreviates: Intragastric administration 240.00 mg/kg.
[24] abbreviates: Intragastric administration 300.00 mg/kg.
The mark [25] stands for this setting: Intravenous injection 16.40 mg/kg.
Where [26] appears, read: Intravenous injection 18.23 mg/kg.
[27] abbreviates: Intravenous injection 20.25 mg/kg.
Where [28] appears, read: Intravenous injection 23.04 mg/kg.

Entries after “also recorded” stand apart in the source; their conditions may differ. Like-named read-outs stand apart in the source and are kept apart here.

Sequence of acetylcholinesterase (P22303 32-614, species assumed): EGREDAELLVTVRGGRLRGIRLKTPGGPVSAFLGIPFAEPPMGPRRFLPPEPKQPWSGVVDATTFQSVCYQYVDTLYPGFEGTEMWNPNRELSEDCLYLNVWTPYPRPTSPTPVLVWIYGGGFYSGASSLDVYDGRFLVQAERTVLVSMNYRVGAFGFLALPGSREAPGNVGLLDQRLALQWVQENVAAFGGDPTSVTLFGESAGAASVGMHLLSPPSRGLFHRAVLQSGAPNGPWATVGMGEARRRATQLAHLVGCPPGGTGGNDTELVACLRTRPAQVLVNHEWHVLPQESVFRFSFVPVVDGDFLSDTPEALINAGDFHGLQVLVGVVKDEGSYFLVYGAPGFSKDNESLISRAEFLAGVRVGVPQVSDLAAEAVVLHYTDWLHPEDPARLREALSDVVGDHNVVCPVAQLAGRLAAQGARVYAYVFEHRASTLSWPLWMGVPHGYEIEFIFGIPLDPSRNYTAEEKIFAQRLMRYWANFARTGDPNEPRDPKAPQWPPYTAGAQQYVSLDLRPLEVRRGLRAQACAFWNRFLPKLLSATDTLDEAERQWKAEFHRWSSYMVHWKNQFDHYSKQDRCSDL

For `O=C1c2cc3c(cc2C2(CC2)N1CCC1CCN(Cc2ccccn2)CC1)OCO3` [Compound I-29, 6-[2-[1-(2-pyridylmethyl)-4-piperidyl]ethyl]spiro[[1,3]dioxolo[4,5-f]isoindole-7,1′-cyclopropane]-5-one], at acetylcholinesterase (in vitro), the “inhibition activity on acetylcholinesterase in vitro relative to donepezil hydrochloride” value is “about 10%” and the “potency on acetylcholinesterase compared with positive control drug donepezil hydrochloride” value is reported as “even lower”. Besides, the IC50 at acetylcholinesterase is 903 nM. Moreover, in data set [1] (Morris water maze, in comparison with model group / donepezil hydrochloride group), the “effect on learning and memory disorder of mice induced by scopolamine” value is “stronger effects of improving learning and memory”. In data set [1] (setting [4]), the “latent period day 1” value stood at 59.3 ± 2.7 s, the “latent period day 2” value is 54.6 ± 12.5 s, the “latent period day 3” value is on record as 48.0 ± 15.8 s and the “latent period day 4” value amounted to 46.0 ± 16.3 s. Further, in data set [1] (setting [4]), the “latent period day 5” value came out at 40.4 ± 21.6 s and the “times of crossing platform” value is on record as 1.5 ± 1.4. In addition, the “content of MDA in brains / antioxidation effect” value in the data set on malonaldehyde (MDA) is recorded as “significant antioxidation effect”. In addition, in the data set on malonaldehyde (MDA) (brain tissue homogenate), the “MDA(nmol/mgprot)” value came to 6.66 ± 1.75 nmol/mgprot.

On to `Cl.O=C1c2cc3c(cc2C2(CC2)N1CCC1CCN(Cc2ccccn2)CC1)OCO3` [Compound I-33, 6-[2-[1-(2-pyridylmethyl)-4-piperidyl]ethyl]spiro[[1,3]dioxolo[4,5-f]isoindole-7,1′-cyclopropane]-5-one hydrochloride], for which the “potency on acetylcholinesterase compared with positive control drug donepezil hydrochloride” value at acetylcholinesterase (in vitro) is listed as “even lower”. The half-inhibitory concentration (IC50) at acetylcholinesterase came to 950 nM. Besides, in data set [2] (rat plasma, oral 5 mg/kg), the t1/2z turned out to be 2.085 ± 0.392. Also, the “absorption degree (AUC) and peak concentration (Cmax) compared with donepezil hydrochloride” value in data set [2] (rat, oral, same dosage 5 mg/kg) was “significantly higher than those of donepezil hydrochloride”. Besides, the LD50 in “in vivo” (iv) was 31.3 mg/kg; in “in vivo” (po) it was 303 mg/kg. For the same compound, the “Mortality (%)” value was found to be 0% in the data set on white mice (setting [5]); 0% in the data set on white mice (setting [6]); 40% in the data set with white mice (setting [7]); 60% in the data set on white mice (setting [8]); 80% with white mice (setting [9]); 100% in the data set on white mice (setting [10]). Further, the “Mortality (%)” value stood at 0% in the data set with white mice (setting [11]); 0% in the data set on white mice (setting [12]); 20% with white mice (setting [13]); 60% in the data set with white mice (setting [14]); 80% in the data set with white mice (setting [15]); 100% with white mice (setting [16]). Further, the Number of death with white mice (setting [5]) amounted to 0; in the data set with white mice (setting [6]), 1; with white mice (setting [7]), 2; in the data set on white mice (setting [8]), 3; in the data set on white mice (setting [9]), 4; in the data set with white mice (setting [10]), 5. In addition, the Number of death is listed as 0 in the data set on white mice (setting [11]); 0 in the data set with white mice (setting [12]); 1 in the data set on white mice (setting [13]); 3 with white mice (setting [14]); 4 in the data set on white mice (setting [15]); 5 in the data set with white mice (setting [16]). Moreover, the “median lethal dose by oral and intravenous administration, times of those of donepezil hydrochloride” value in the data set on white mice was 8-10 times. For the same compound, the “toxicity compared with donepezil hydrochloride” value in the data set with white mice (hydrochloride) is listed as “lower toxicity than donepezil hydrochloride; also recorded: much lower toxicity”. The “effect on period required for reaching the platform for the first time (latent period)” value in data set [3] (setting [17]) was “significantly shorten the period required for reaching the platform for the first time”. The “effect on times of crossing the platform” value in data set [3] (setting [17]) is “significantly increases the times of crossing the platform”. Moreover, in data set [3] (Morris water maze, 0.7, 3.5 and 7 mg/Kg, hydrochloride), the “improvement of learning and memory disorder of rats induced by Aβ1-42” value was “significantly improve the learning and memory disorder of rats induced by intracerebroventricular injection of Aβ1-42; also recorded: stronger effects of improving learning and memory”. Further, the “The period of reaching the platform for the first time (latent period)” value in data set [3] (setting [18]) came out at 14.87 ± 3.62; in data set [3] (setting [19]), 21.37 ± 3.64; in data set [3] (setting [20]), 18.10 ± 6.54. Further, the “times of crossing platform” value is on record as 3.20 ± 0.36 in data set [3] (setting [18]), 3.00 ± 0.33 in data set [3] (setting [19]) and 3.40 ± 0.43 in data set [3] (setting [20]).

For the compound `Cl.O=C1c2cc3c(cc2C2(CC2)N1CCC1CCN(Cc2ccccc2)CC1)OCO3` [Compound I-34, 6-[2-(1-benzyl-4-piperidyl)ethyl]spiro[[1,3]dioxolo[4,5-f]isoindole-7,1′-cyclopropane]-5-one hydrochloride], the “potency on acetylcholinesterase compared with positive control drug donepezil hydrochloride” value at acetylcholinesterase (in vitro, hydrochloride) is on record as “slightly lower potency than the positive control drug; also recorded: comparable inhibition activity on acetylcholinesterase with donepezil hydrochloride”. The IC50 at acetylcholinesterase came out at 197 nM. The median lethal dose (LD50) in the data set “in vivo” (iv) was found to be 20.1 mg/kg; in the data set “in vivo” (po), 171 mg/kg. The “Mortality (%)” value in the data set with white mice (setting [21]) is 0%; with white mice (setting [22]), 40%; in the data set with white mice (setting [23]), 80%; in the data set on white mice (setting [24]), 100%; in the data set with white mice (setting [25]), 0%; in the data set with white mice (setting [26]), 20%. In addition, the “Mortality (%)” value turned out to be 60% with white mice (setting [27]), 80% with white mice (setting [28]) and 100% in the data set on white mice (setting [13]). In addition, the Number of death worked out at 0 in the data set on white mice (setting [21]); 2 in the data set with white mice (setting [22]); 4 with white mice (setting [23]); 5 in the data set on white mice (setting [24]); 0 in the data set on white mice (setting [25]); 1 in the data set on white mice (setting [26]). The Number of death with white mice (setting [27]) is given as 3; in the data set with white mice (setting [28]), 4; in the data set with white mice (setting [13]) it was 5. Besides, the “median lethal dose by oral and intravenous administration, times of those of donepezil hydrochloride” value in the data set with white mice is 4-7 times. Moreover, the “toxicity compared with donepezil hydrochloride” value with white mice is given as “lower toxicity than donepezil hydrochloride”.

In the case of `O=C1c2cc3c(cc2C2(CC2)N1CCC1CCN(Cc2ccccn2)CC1)OCO3` [Compound I-35, 6-[2-[1-(2-pyridylmethyl)-4-piperidyl]ethyl]spiro[[1,3]dioxolo[4,5-f]isoindole-7,1′-cyclopropane]-5-one phosphate], the IC50 on acetylcholinesterase (modified Ellman method) amounted to 601 nM. For the same compound, in data set [2] (rat, in vivo, po, 5 mg/kg), the “MRT(0-t)” value turned out to be 2.343 ± 0.206, the “MRT(0-∞)” value is reported as 2.483 ± 0.265 and the t1/2z is listed as 1.965 ± 0.296.
